One assay concerns the target T1, Tyrosinase (Agaricus bisporus, UniProt O42713).
T1 sequence (O42713 whole entry): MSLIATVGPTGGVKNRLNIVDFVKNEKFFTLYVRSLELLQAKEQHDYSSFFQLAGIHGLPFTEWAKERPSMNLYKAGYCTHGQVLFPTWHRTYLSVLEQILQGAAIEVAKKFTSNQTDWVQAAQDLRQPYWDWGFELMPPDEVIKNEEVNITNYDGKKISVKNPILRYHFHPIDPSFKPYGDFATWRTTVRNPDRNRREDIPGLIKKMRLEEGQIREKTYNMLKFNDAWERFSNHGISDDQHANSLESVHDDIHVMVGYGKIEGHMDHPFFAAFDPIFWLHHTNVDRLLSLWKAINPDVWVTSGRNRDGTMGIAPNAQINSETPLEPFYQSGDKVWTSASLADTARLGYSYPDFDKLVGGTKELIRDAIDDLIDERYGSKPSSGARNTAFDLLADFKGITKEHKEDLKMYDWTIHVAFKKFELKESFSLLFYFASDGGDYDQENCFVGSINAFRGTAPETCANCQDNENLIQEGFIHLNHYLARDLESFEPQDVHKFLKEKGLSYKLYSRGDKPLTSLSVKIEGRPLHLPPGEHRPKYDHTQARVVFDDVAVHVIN

The subject of assay [1] is B16. Put plainly: cells. The note with it: Mus musculus, B16, 72 h, read-out: INH.
Description: Inhibition of alpha-MSH -stimulated melanogenesis in mouse B16 cells assessed as melanin release at 10 uM after 72 hrs by spectrometric analysis
Assay [2] concerns B16. Put plainly: cells. The note with it: Mus musculus, B16, 72 h.
Description: Inhibition of alpha-MSH -stimulated melanogenesis in mouse B16 cells assessed as melanin release after 72 hrs by spectrometric analysis

Structures are written as SMILES.

Description for Tyrosinase: Inhibition of mushroom tyrosinase activity using L-tyrosine as substrate by spectrometric analysis

Take `CCc1ccccc1NC(N)=S`: half-maximal inhibition at Tyrosinase (IC50) required 27.1 µM.
The same measure, in the same setting: for `NC(=S)NCc1ccccc1` the value was 25.4 µM.
Same read-out and setting: for `NC(=S)NCCc1ccccc1` the value was above 100 µM; for `NC(=S)NCCCc1ccccc1`, 64.8 µM; for `Cc1ccc(NC(N)=S)cc1`, 1.4 µM.
Turning to `CCc1ccc(NC(N)=S)cc1`, the midpoint of inhibition against Tyrosinase, the IC50, lay at 0.8 µM.
As for `CC(C)(C)c1ccc(NC(N)=S)cc1`, at Tyrosinase, half-maximal inhibition (IC50) required 1.7 µM.
Still for that read-out and setting: the value for `Cc1cccc(NC(N)=S)c1` was 0.6 µM; that for `Cc1ccccc1NC(N)=S` was 0.84 µM; that for `CC(C)(C)c1ccccc1NC(N)=S` was above 100 µM.
Same read-out and setting: the value for `S=C1NCc2ccccc2N1` was above 100 µM.
Consider `S=C(NCCc1ccccc1)Nc1ccccc1`, for which, in the assay with B16 [1], the inhibition at 10 µM was above 100%. The IC50 (commonly the concentration that gives 50% inhibition) against Tyrosinase was above 100 µM; in the assay on B16 [2], 2.2 µM.
In the case of `S=C(NCCCc1ccccc1)Nc1ccccc1`, in the assay with B16 [1], the inhibition at 10 µM is above 100%. Also, the values for the IC50 against Tyrosinase and in the assay on B16 [2] were above 100 µM and 1.8 µM, respectively.
Regarding `COc1ccc(NC(S)=Nc2ccccc2)cc1`, the inhibition at 10 µM in the assay with B16 [1] was found to be 59%. Also, the IC50 at Tyrosinase is above 100 µM; in the assay on B16 [2], 8.2 µM.
The matching figures for `CNC(=S)Nc1ccccc1`: 30%, above 100 µM and 35 µM.
The matching figures for `Cc1ccc(NC(=S)Nc2ccccc2)cc1`: 79%, above 100 µM and 6.3 µM.
With `S=C(Nc1ccccc1)Nc1ccc(Cl)cc1`, the inhibition at 10 µM in the assay on B16 [1] is above 100%. The IC50 is above 100 µM at Tyrosinase and 3.4 µM in the assay with B16 [2].
`S=C(Nc1ccccc1)NC1CCCCC1`: in the assay with B16 [1], the inhibition at 10 µM is above 100%. In addition, the values for the IC50 against Tyrosinase and with B16 [2] were above 100 µM and 2.4 µM, respectively.
Take `S=C(NCc1ccccc1)Nc1ccccc1`: the inhibition at 10 µM in the assay on B16 [1] was found to be 91%. Also, the values for the IC50 at Tyrosinase and with B16 [2] were above 100 µM and 4.7 µM, respectively.
The matching figures for `CC(C)N(C(=S)Nc1ccccc1)C(C)C`: 30%, above 100 µM and 19.6 µM.
For the molecule `Oc1ccc(N/C(S)=N/c2ccccc2)cc1`, the inhibition at 10 µM in the assay with B16 [1] came to 24%. Further, the IC50 at Tyrosinase was above 100 µM; with B16 [2] it was 20.7 µM.
In turn, `Cc1ccc2c(c1)CN(CCc1ccccc1)C(=S)N2` registered an IC50 on Tyrosinase above 100 µM.

The record behind these values is ChEMBL document CHEMBL1909585 (Bioorg Med Chem Lett, 2011).
